# According to PMC3726599, “A Metabolically-Stabilized Phosphonate Analog of Lysophosphatidic Acid Attenuates Collagen-Induced Arthritis” (PLoS ONE, 2013):
# What was measured:
# A549 cell = test system: A549 cell; set-up: method as in PMID 20143443; conditions: A549, in vitro; cited from earlier work
# plasma LPA levels = experiment: In vivo plasma LPA and LPC levels (HPLC-MS/MS); set-up: species or system mouse; conditions: 10 mg/kg i.p.
# Experimental: BrP-LPA, LPA species (C14:0, C16:0, C18:0, C18:1 and C20:4) and LPC species (C14:0, C16:0, C18:0, C18:1 and C20:0) were measured in plasma with HPLC-ESI/MS/MS using RSLCnano system (Ultimate 3000) coupled in-line with an LTQ Orbitrap XL mass spectrometer (Thermo Scientific, Waltham, MA, USA). BrP-LPA and lipid (LPA, LPC) extraction from plasma was performed on ice according to the Folch method with minor modifications. Plasma samples (50 ul) were mixed with 950 ul PBS prior to extraction and spiked with the internal standard mix (17:1 LPA/LPC). Samples were extracted under neutral conditions with 4 ml of ice-cold CHCl3/CH3OH (2/1, v/v) followed by 2 ml of PBS-saturated ice-cold CHCl3/CH3OH (2/1, v/v). Each extraction step was followed by a 60 s vortex and a 1 min centrifugation step in a bench-top clinical centrifuge in a cold room at 4°C at 3,000 rpm. The lower chloroform organic phases from both neutral extraction steps were pooled and kept for LPC measurement. The remained aqueous phase was chilled on ice for 10 min and extracted twice with ice-cold acidified with acetic acid CHCl3/CH3OH (2/1, v/v) as above. The lower organic phases were pooled, neutralized to pH 6–7 (checked with pH paper as above) on ice and kept for LPA, BrP-LPA measurements. The kept neutral lower organic phase of neutral extraction and the neutralized acidified lower organic phase were evaporated to dryness. The resulting residues were resuspended in 0.15 ml of isopropanol and after brief vortex mixing the solution was transferred to the auto sampler vial. Recovery of LPA species was between 60% and 95%. Recovery of BrP-LPA was 70% and the recovery of LPC species was between 80% and 100%. The Relative Standard Deviation (RSD) was less than 7% from the plasma fortified with three different concentrations (0.1, 0.5 and 1 μΜ) of LPAs, (0.1, 1 and 10 μΜ) of BrP-LPA and (0.5, 5 and 50 μΜ) of LPCs. Analysis was performed using a Phenomenex (Phenomenex, Torrance, CA, USA) Luna Silica column (2–250 mm, 5 μm particle size) using a binary gradient program consisting of isopropanol:hexane:100 mM NH4CO2H(aq) 58:40:2 (mobile phase A) and isopropanol:hexane:100 mM NH4CO2H(aq) 50:40:10 (mobile phase B). The mobile phase was delivered at a flow rate of 0.3 ml/min and the total run time was 50 min/sample. […] The precursor ion mass was used for the quantification while lipid identity was confirmed by precursor ion fragmentation using collision induced dissociation (CID). […]
# BrP-LPA was administered intraperitoneally (IP) at 10 mg/kg in water to 6–8 week old female mice. […] Plasma samples were then analysed for plasma ATX activity and BrP-LPA/LPA/LPC levels with the TOOS activity assay and HPLC-MS/MS respectively. […]
# [1] = test system: human colon cancer cells (HCT-116); set-up: method as in earlier work; conditions: HCT-116, in vitro; cited from earlier work
smiles,measurement,setting,value
"CCCCCCCCCCCCCCCC(=O)OC[C@@H](O)CC(Br)P(=O)(O)O (stereo partly drawn) [BrP-LPA, 1-bromo-3(S)-hydroxy-4-(palmitoyloxy)butyl-phosphonate]",cell migration and invasiveness,A549 cell,inhibit cell migration and invasiveness
same,plasma LPC levels,plasma LPA levels,remain unchanged
same,production of LPA species in plasma,plasma LPA levels,inhibited the production of all LPA species tested except from 14:0 LPA
same,reduction of total plasma LPA levels,plasma LPA levels; 1 hour post administration,82%
same,"LPA levels, % of normal initial levels",plasma LPA levels; sixteen hours post administration,60–70%
same,"proliferation, migration and invasion",[1],"reduce human colon cancer cells (HCT-116) proliferation, migration and invasion in vitro"
